Experimental data published in paper PMC10530208 (Cell reports, 2023).
Where a name gives a salt, the structure may show the parent alone.

Legend:
C. parvum [1] = experiment: C. parvum growth assay in HCT-8 cells: indole analog screen and dose-response; format: cell-based, Cryptosporidium parvum; conditions: for Effect on Cp infection in the indole analog screen: 1 mM, HCT-8 cells; for EC50: Cryptosporidium parvum, HCT-8, 24 h, read-out: Cp EC50
C. parvum [2] = experiment: Initial screen of metabolites on C. parvum growth in HCT-8 cells; format: cell-based, Cryptosporidium parvum; conditions: 1 mM or 0.1 mM, 24 hpi
C. parvum [3] = experiment: Sliding window treatment with indoles; format: cell-based, Cryptosporidium parvum; conditions: EC90 concentration
C. parvum [4] = experiment: Air-liquid interface; format: cell-based, Cryptosporidium parvum; conditions: for Time after washout to significant recovery in Cp growth / Cp growth recovery after washout: ALI; for Time after washout to significant recovery in Cp growth: treated at EC50 for two days; for EC50 / EC90: Cryptosporidium parvum; for EC50: read-out: Cp EC50 in ALI cultures; for EC90: read-out: Cp EC90 in ALI cultures
Cp mitosome = experiment: MitoTracker staining of indole treated C. parvum; format: cell-based, Cryptosporidium parvum; conditions: indole 1.76 mM, 7CNI 1 mM, CCCP 10 μM; 2 h or 24 h
HCT-8 cells [5] = experiment: Seahorse metabolic assays; format: cell-based, human; conditions: 18 h; indole 0.5-2 mM, 7CNI 0.25-1 mM
[6] = system: C. parvum-infected GKO mice; experiment: Metabolite treatment of C. parvum-infected GKO mice; format: in vivo, mouse; conditions: 50 mg/kg oral gavage twice daily for 7 days
C. parvum [7] = experiment: Antibody and EdU labeling of C. parvum life cycle stages; format: cell-based, Cryptosporidium parvum; conditions: EC90 concentration; for Effect on Cp life cycle progression: first 24 hpi
HCT-8 cells [8] = experiment: Host nuclei ratio with mitochondrial inhibitors; format: cell-based, human; conditions: 40 μM and 20 μM
C. parvum [9] = experiment: C. parvum growth assay with mitochondrial inhibitors; format: cell-based, Cryptosporidium parvum; conditions: read-out: Cp EC50
HCT-8 cells [10] = experiment: Initial metabolite screen: host cell numbers; format: cell-based, human; conditions: 1 mM
HCT-8 cells [11] = experiment: Transcriptomics; format: cell-based, human; conditions: 880 μM; 4 or 12 h; FDR p < 0.05, absolute fold change > 2
[12] = system: HCT-8 AhR WT cells or AhR KO cells; experiment: Seahorse XF Cell Energy Phenotype Test on HCT-8 AhR WT and AhR KO cells; format: cell-based, human; conditions: 18 h; 0.5, 1 or 2 mM; both HCT-8 WT and AhR KO cells
C. parvum [13] = experiment: C. parvum growth assay in HCT-8 AhR WT vs AhR KO cell lines; format: cell-based, Cryptosporidium parvum; conditions: 1 mM; 24 h

For `Cc1c[nH]c2ccccc12` [3-methylindole], the “Effect on Cp infection in the indole analog screen” value (C. parvum [1]) was “did inhibit Cp”.
`Oc1cccc2[nH]ccc12` [4-Hydroxyindole] was tested, and the EC50 (C. parvum [1]) was 1260 µM and the “Effect on Cp growth in the primary metabolite screen” value (C. parvum [2]) was “significantly inhibited Cp growth”.
`O=C(O)Cc1c[nH]c2ccc(O)cc12` [5-Hydroxyindole-3-acetic acid] was tested, and the “Effect on Cp growth in the primary metabolite screen” value (C. parvum [2]) was “no effect on Cp”.
`N#Cc1cccc2cc[nH]c12` [7-cyanoindole] was tested, and the “Effect on Cp growth, treatment 0–4 hpi only” value (C. parvum [3]) was “neither indole nor 7CNI inhibited Cp growth”, the “Effect on Cp infection, treatment started 4 hpi (4–24 hpi)” value (C. parvum [3]) was “significantly inhibited Cp infection” and the “Time after washout to significant recovery in Cp growth” value (C. parvum [4]) was 4 days. The EC50 (C. parvum [4]) was 379 µM, the EC90 (C. parvum [4]) was 0.688 mM and the “MitoTracker staining of Cp mitosomes” value (Cp mitosome) was “significantly decreased MitoTracker staining of Cp mitosomes”. The “ATP production rate by glycolysis” value (HCT-8 cells [5]) was “remained similar between all treatments”, the “ATP production rate by the mitochondria” value (HCT-8 cells [5]) was “significant reduction in ATP production rate by the mitochondria” and the Body weight [6] was “weighed significantly more than vehicle- or indole-treated mice 5 and 7 dpi”. The Survival rate [6] was “did not significantly increase survival rate” and the “Effect on Cp life cycle progression” value (C. parvum [7]) was “delayed progression through sequential life cycle stages”.
`N#CC(C#N)=NNc1cccc(Cl)c1` [CCCP, carbonyl cyanide m-chlorophenyl hydrazone] was tested, and the “MitoTracker staining of Cp mitosomes” value (Cp mitosome) was “decreases MitoTracker staining in the Cp mitosome”, the Host toxicity (HCT-8 cells [8]) was “observed host toxicity” and the EC50 (C. parvum [9]; HCT-8 cells, 24 h) was 5 µM.
In the case of `C[C@H](CCC(=O)O)[C@H]1CC[C@H]2[C@@H]3CC[C@@H]4C[C@H](O)CC[C@]4(C)[C@H]3C[C@H](O)[C@]12C` [Deoxycholate, sodium deoxycholate], the “Host toxicity in the initial screen” value (HCT-8 cells [10]) is reported as “significant host toxicity at 1 mM” and the “Effect on Cp growth in the primary metabolite screen” value (C. parvum [2]) is reported as “significantly inhibited Cp growth”.
`C[C@H](CCC(=O)O)[C@H]1CC[C@H]2[C@@H]3CC[C@@H]4C[C@H](O)CC[C@]4(C)[C@H]3C[C@H](O)[C@]12C` [Deoxycholic acid] was tested, and the “Host toxicity in the initial screen” value (HCT-8 cells [10]) was “significant host toxicity at 1 mM” and the “Effect on Cp growth in the primary metabolite screen” value (C. parvum [2]) was “significantly inhibited Cp growth”.
With `NC(=O)Cc1c[nH]c2ccccc12` [Indole-3-acetamide] the “Effect on Cp infection in the indole analog screen” value (C. parvum [1]) was “exceptions”.
With `O=C(O)CCc1c[nH]c2ccccc12` [Indole-3-propionic acid] the “Effect on Cp infection in the indole analog screen” value (C. parvum [1]) was “did inhibit Cp”.
For `c1ccc2[nH]ccc2c1` [Indole], the Downregulated genes (HCT-8 cells [11]) was 11 genes, the “Genes significantly differentially expressed after treatment” value (HCT-8 cells [11]) was 68 genes and the Upregulated genes (HCT-8 cells [11]) was 57 genes. For the same compound, the “Effect on Cp growth, treatment 0–4 hpi only” value (C. parvum [3]) was “neither indole nor 7CNI inhibited Cp growth”, the “Effect on Cp infection, treatment started 4 hpi (4–24 hpi)” value (C. parvum [3]) was “significantly inhibited Cp infection” and the “Effect on Cp infection of pre-treatment of host cells” value (C. parvum [3]; 20 h before infection) was “did not affect subsequent Cp infection”. The “Mitochondrial basal and stressed respiratory rate” value [12] was “significantly impaired in a dose-dependent manner”, the “Cp growth recovery after washout” value (C. parvum [4]; treated at 2 × EC90 for two days) was “no recovery was observed” and the “Time after washout to significant recovery in Cp growth” value (C. parvum [4]) was 2 days. The “Cp growth recovery after washout” value (C. parvum [4]; treated at EC90 for two days) was “Some growth recovery (though not significant)”, the EC50 (C. parvum [4]) was 577 µM and the EC90 (C. parvum [4]) was 1.89 mM. The “MitoTracker staining of Cp mitosomes” value (Cp mitosome) was “significantly decreased MitoTracker staining of Cp mitosomes”, the “ATP production rate by glycolysis” value (HCT-8 cells [5]) was “remained similar between all treatments” and the “ATP production rate by the mitochondria” value (HCT-8 cells [5]) was “significant reduction in ATP production rate by the mitochondria”. For the same compound, the “Basal and maximal levels of mitochondrial respiration (OCR)” value (HCT-8 cells [5]) was “significantly reduced both basal levels and maximal levels of mitochondrial respiration”, the Spare respiratory capacity (HCT-8 cells [5]) was “diminished” and the “Total ATP production rate” value (HCT-8 cells [5]) was “lower total ATP production rate”. For the same compound, the “Cp oocysts shed in the feces” value [6] was “no significant effect on Cp infection in vivo”, the Median survival time [6] was 17 dpi and the EC50 (C. parvum [1]) was 411 µM. For the same compound, the “Cp sensitivity to inhibition in AhR KO cells” value (C. parvum [13]) was “remained sensitive”, the “Effect on Cp growth in the primary metabolite screen” value (C. parvum [2]) was “significantly inhibited Cp growth” and the “Morphology of mature merozoites” value (C. parvum [7]; 22 h, 1E12 labeling) was “did not observe any obvious morphological defects in mature merozoites”. The “Effect on Cp life cycle progression” value (C. parvum [7]) was “delayed progression through sequential life cycle stages”.
In the case of `C[C@H](CCC(=O)O)[C@H]1CC[C@H]2[C@@H]3CC[C@@H]4C[C@H](O)CC[C@]4(C)[C@H]3CC[C@]12C` [Lithocholic acid], the “Host toxicity in the initial screen” value (HCT-8 cells [10]) is reported as “significant host toxicity at 1 mM” and the “Effect on Cp growth in the primary metabolite screen” value (C. parvum [2]) is reported as “significantly inhibited Cp growth”.
`CCCCC[C@H](O)/C=C/[C@H]1[C@H](O)CC(=O)[C@@H]1C/C=C\CCCC(=O)O` [Prostaglandin E2] was tested, and the “Host toxicity in the initial screen” value (HCT-8 cells [10]) was “significant host toxicity at 1 mM”.
For `Cc1ncc(CO)c(C=O)c1O` [Pyridoxal hydrochloride], the EC50 (C. parvum [1]) was 213 µM, the “Fold Selectivity (HCT-8 EC50 divided by Cp EC50)” value (C. parvum [1]; host value from nuclei count) was 44.6 fold and the “Effect on Cp growth in the primary metabolite screen” value (C. parvum [2]) was “significantly inhibited Cp growth”.
`O=C(O)C(O)Cc1c[nH]c2ccccc12` (stereo not drawn) [indole-3-lactic acid] was tested, and the “Effect on Cp infection in the indole analog screen” value (C. parvum [1]) was “exceptions”.
`CC[C@H]1/C=C/C=C/C[C@@H](C)[C@H](O)[C@@](C)(O)C(=O)[C@@H](C)[C@H](O)[C@@H](C)C(=O)[C@@H](C)[C@H](O)[C@@H](C)/C=C/C(=O)O[C@@H]2[C@H](C)[C@H](CC1)O[C@]1(CC[C@H](C)[C@H](C[C@@H](C)O)O1)[C@H]2C` [oligomycin] gave an EC50 (C. parvum [9]; Cryptosporidium parvum, HCT-8, 24 h) of 20.6 µM.
